{"source": "paper PMC12711574", "about": "(Nature, 2025)", "key": {"[1]": {"molecular_target": "T1, MOR–Rluc8 and Gαi1β1γ2–GFP2 (Homo sapiens, UniProt P35372+P63096)", "T1 sequence (P63096 2-354 limits assumed)": "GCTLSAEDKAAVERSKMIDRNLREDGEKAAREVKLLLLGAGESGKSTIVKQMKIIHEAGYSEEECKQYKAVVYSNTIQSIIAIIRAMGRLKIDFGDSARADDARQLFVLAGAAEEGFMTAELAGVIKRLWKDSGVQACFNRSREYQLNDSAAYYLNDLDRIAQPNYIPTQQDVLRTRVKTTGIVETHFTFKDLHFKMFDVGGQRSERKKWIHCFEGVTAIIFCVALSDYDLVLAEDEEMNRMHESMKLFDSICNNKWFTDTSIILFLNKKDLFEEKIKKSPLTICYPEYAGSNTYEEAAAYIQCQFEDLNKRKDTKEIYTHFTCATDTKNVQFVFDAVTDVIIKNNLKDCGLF", "T1 sequence (P35372 whole entry)": "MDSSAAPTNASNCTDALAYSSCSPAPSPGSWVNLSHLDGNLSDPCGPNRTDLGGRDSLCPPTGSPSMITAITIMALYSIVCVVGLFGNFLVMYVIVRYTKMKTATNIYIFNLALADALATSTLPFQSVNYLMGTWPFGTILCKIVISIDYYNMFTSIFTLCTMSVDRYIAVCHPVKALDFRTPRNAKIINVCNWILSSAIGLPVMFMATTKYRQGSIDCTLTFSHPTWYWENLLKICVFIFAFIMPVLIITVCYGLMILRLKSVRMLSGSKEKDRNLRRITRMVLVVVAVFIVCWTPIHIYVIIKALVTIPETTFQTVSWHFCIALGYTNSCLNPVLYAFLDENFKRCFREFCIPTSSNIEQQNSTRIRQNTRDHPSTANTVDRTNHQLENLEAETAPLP", "T1 sequence (P62873 2-340 partner limits assumed)": "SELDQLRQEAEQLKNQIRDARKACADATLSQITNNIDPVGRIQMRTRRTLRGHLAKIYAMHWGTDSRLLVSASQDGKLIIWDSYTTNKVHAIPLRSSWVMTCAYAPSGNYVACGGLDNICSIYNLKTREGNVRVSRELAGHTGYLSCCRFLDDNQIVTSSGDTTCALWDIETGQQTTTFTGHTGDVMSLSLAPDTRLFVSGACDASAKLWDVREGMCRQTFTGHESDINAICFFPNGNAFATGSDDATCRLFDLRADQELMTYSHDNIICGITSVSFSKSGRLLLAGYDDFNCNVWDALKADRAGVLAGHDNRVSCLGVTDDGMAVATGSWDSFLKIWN", "T1 sequence (P59768 2-68 partner limits assumed)": "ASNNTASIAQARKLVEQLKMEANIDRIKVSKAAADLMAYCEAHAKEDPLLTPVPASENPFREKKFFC", "type": "cell-based", "details": "MOR in the apo state, mean ± s.d."}, "[2]": {"molecular_target": "T1, MOR–Rluc8 and Gαi1β1γ2–GFP2", "type": "cell-based"}}, "note": "Like-named read-outs stand apart in the source and are kept apart here.", "data": [{"smiles": "Nc1nc2c(ncn2[C@@H]2O[C@H](COP(=O)(O)OP(O)(O)=S)[C@@H](O)[C@H]2O)c(=O)[nH]1", "note": "[GDPβS]", "values": [{"measurement": "EC50", "setting": "[1]; read-out: GDPβS EC50", "result": "57 ± 14", "unit": "nM"}]}, {"smiles": "C[C@H]1CN(C[C@H](Cc2ccccc2)C(=O)NCC(=O)O)CC[C@@]1(C)c1cccc(O)c1", "note": "[Alvimopan]", "values": [{"measurement": "signal changes", "setting": "[2]", "result": "too small to interpret"}]}, {"smiles": "Nc1nc2c(ncn2[C@@H]2O[C@H](COP(=O)(O)OP(=O)(O)OP(O)(O)=S)[C@@H](O)[C@H]2O)c(=O)[nH]1", "note": "[GTPγS]", "values": [{"measurement": "EC50", "setting": "[1]; read-out: GTPγS EC50", "result": "3.8 ± 0.18", "unit": "nM"}]}]}
